Source: patent US10758634B2, “Compounds, compositions and associated methods using zirconium-89 in immuno-positron emission tomography” (Wake Forest University, priority 2016, dated 2020)
Entries after “also recorded” stand apart in the source; their conditions may differ.

Legend:
[1] = Metal competition studies (demetallation by excess metal salts); assay type: physicochemical; settings: for complex remaining intact: 7 days
Description: Tetraazamacrocycles can chelate numerous, biologically relevant metal cations, and this property can potentially create a second mechanism for ^89Zr^4+ dissociation from its chelator in vivo. To assess the ability of the Zr-complexes to resist demetallation by another metal cation, metal competition studies were performed, in which the radiometal complex was mixed with an excess concentration of metal salts.

[2] = Human serum stability (radio-TLC/ITLC, size exclusion chromatography); assay type: in vitro ADME; settings: for In vitro stability (Radio-TLC): Serum, n = 3; for degradation in human serum (radio-ITLC): human serum proteins, 7 days at 37° C.
Description: (§1) Lipophilicity (Log P) will be determined using the water:octanol method. Briefly, the water:octanol (1:1) solution containing the ^89Zr-complex (0.19 MBq) will be vortexed (5 min) and then centrifuged (5 minutes at 17,000 rpm). After separation, aliquots from each layer will be counted separately in the gamma counter, and Log P will be calculated as the ratio of counts in the octanol fraction to counts in the aqueous fraction. In vitro stability will be determined by incubating each ^89Zr complex at 37° C. in the presence 500 μL of DTPA (50 mM, pH 7 or pH 5), 500 μL of EDTA (50 mM, pH 7 or pH 5), or 500 μL of human serum (at 37° C.). The different pH environments will be meant to reflect the pH environments in normal blood (pH 7) or the lysosome (pH 5). Samples will be analyzed over the course of 7 days using radio-TLC and radio-HPLC.
To further characterize the stability of Zr-tetraazamacrocycle complexes and preliminarily assess their suitability for in vivo applications, each radiometal complex was incubated with human serum proteins for 7 days at 37° C.
Any ^89Zr transchelated to serum proteins is expected to be complexed by EDTA and move to the solvent front in this system.

[3] = DTPA challenge, in vitro stability (radio-TLC); assay type: physicochemical; settings: 50 mM DTPA, n = 3
Description: as §1

[4] = EDTA challenge, in vitro stability (radio-TLC); assay type: physicochemical; settings: 50 mM EDTA, pH 5.5, n = 3
[5] = Small animal PET imaging in normal mice; assay type: in vivo; settings: for radioactivity at 4 h (static PET): 4 h after injection; for radioactivity at 24 h (static PET): 24 h after injection; for excretion route (PET): mouse, in vivo
Description: Small animal PET/CT imaging will be conducted on the ^89Zr-AMCs identified from studies described above and in vivo biodistribution studies. NIH Swiss mice (n=6/cohort) will be injected with either ^89ZrCl4, ^89Zr-DFO (11 MBq (300 μCi)) or ^89Zr-AMC and imaged using 1 h dynamic scanning followed by static imaging at 4, 24, 48 h and 72 h p.i. […] All PET images will be co-registered with CT, to (a) allow more accurate selection of regions of interest to correspond with anatomy described by CT, and (b) reduce inaccuracies that result from partial volume effects, which can result in falsely low standard uptake values (SUVs) during data analysis. SUVs and the corresponding % ID/g will be determined from the co-registered PET/CT images using the formula SUV=[nCi/cc×animal weight/injected dose], and correlated to the biodistribution data.
Normal mice were injected with ^89Zr-DFO and ^89Zr-DOTA and dynamic PET imaging done from 0-60 minutes, followed by static imaging at 2, 4, and 24 hours after injection.

[6] = EDTA challenge, in vitro stability (radio-TLC); assay type: physicochemical; settings: for order of ^89Zr complex stability: based upon EDTA challenge studies
Description: as §1, with “In vitro stability will be determined by incubating each ^89Zr complex at 37° C. in the presence 500 μL of DTPA (50 mM, pH 7 or pH 5), 500 μL of EDTA (50 mM, pH 7 or pH 5), or 500 μL of human serum (at 37° C.).” left out
Based upon our EDTA challenge studies, the order of ^89Zr complex stability can be described as ^89Zr-DOTA>>^89Zr-DOTP>^89Zr-DOTAM>^89Zr-DFO.

[7] = Acute in vivo biodistribution of ^89Zr-complexes in normal mice; parameters: species or system NIH Swiss mice; settings: for radioactivity retention in bone tissue over time: up to 72 h
Description: NIH Swiss mice (n=6/time point) will be injected with the ^89Zr-AMC (0.56 MBq (15 μCi)), and then sacrificed at 1, 4, 24, 48 and 72 h post-injection (p.i.). Organs of interest will be removed, weighed and counted on a gamma counter. Percent injected dose per gram (% ID/g) and percent injected dose per organ (% ID/organ) will be counted and compared to a weighed, counted standard for all groups.
The in vivo stability of ^89Zr-DOTA, ^89Zr-DOTP, and ^89Zr-DOTAM were then evaluated in acute biodistribution studies using female NIH Swiss mice (6-8 wk old, n=6). […] While surfactant was used in the injection formulation for biodistribution studies, it is hypothesized that once in the blood stream, ^89Zr-DOTAM aggregates with serum proteins, which are deposited in these tissues during circulation.

[8] = In vitro solution behaviour (aggregation/precipitation); assay type: physicochemical; settings: unless a low concentration of surfactant was included
[9] = Lipophilicity (log P), water/octanol partition method; assay type: physicochemical
Description: as §1

Row | In vitro stability (Radio-TLC) ([2]; 1 h) [%] | In vitro stability (Radio-TLC) ([2]; 7 d) [%] | degradation in human serum (radio-ITLC) [2] | In vitro stability (Radio-TLC) ([3]; pH 5.5, 1 h) [%] | In vitro stability (Radio-TLC) ([3]; pH 5.5, 7 d) [%] | In vitro stability (Radio-TLC) ([3]; pH 7.0, 1 h) [%] | In vitro stability (Radio-TLC) ([3]; pH 7.0, 7 d) [%] | In vitro stability (Radio-TLC) ([4]; 1 h) [%] | In vitro stability (Radio-TLC) ([4]; 7 d) [%] | radioactivity at 24 h (static PET) [5] | excretion route (PET) [5] | blood clearance ([7]; normal mice, n=6/group) | Lipophilicity (log P) [9] | Compound | radioactivity at 4 h (static PET) [5] | order of ^89Zr complex stability [6] | radioactivity retention in bone tissue over time [7] | other results
1 | 100 | 99.3 ± 0.1 | no noticeable degradation | 7.3 ± 0.8 | 0 | 90.3 ± 0.5 | 40.6 ± 0.5 | 6.3 ± 0.8 | 0 | still visible in static images | excreted renally | rapid blood clearance | – | CC(=O)N([O-])CCCCCNC(=O)CCC(=O)N([O-])CCCCCNC(=O)CCC(=O)N([O-])CCCCCN.[89Zr+4] [^89Zr-DFO, reference compound] | more radioactivity accumulated in the kidneys | ^89Zr-DOTA>>^89Zr-DOTP>^89Zr-DOTAM>^89Zr-DFO | increases over time | complex remaining intact ([1]; challenged with Fe^3+): 33.9%; complex remaining intact ([1]; challenged with Ga^3+): 72.6%; loss of metal ions in EDTA challenge ([6]; 1000-fold excess of EDTA, after 3 h): completely lost metal ions
2 | – | – | no noticeable degradation | – | – | – | – | – | – | – | – | – | – | NC(=O)CN1CCN(CC(N)=O)CCN(CC(N)=O)CCN(CC(N)=O)CC1.[89Zr+4] [^89Zr-DOTAM] | – | ^89Zr-DOTA>>^89Zr-DOTP>^89Zr-DOTAM>^89Zr-DFO | – | behaviour in solution in vitro [8]: aggregated and precipitated out of solution; radioactivity retained in liver and spleen ([7]; female NIH Swiss mice, not excreted over 72 hour time course): retained elevated levels of radioactivity in liver and spleen tissues
3 | 100 | 100 | no noticeable degradation | 100 | 100 | 100 | 100 | 100 | 100 | barely above background levels | excreted renally | rapid blood clearance | most hydrophilic characteristics | O=C([O-])CN1CCN(CC(=O)[O-])CCN(CC(=O)[O-])CCN(CC(=O)[O-])CC1.[89Zr+4] [^89Zr-DOTA] | nearly all the radioactivity was excreted | ^89Zr-DOTA>>^89Zr-DOTP>^89Zr-DOTAM>^89Zr-DFO | remained low with no statistically significant changes at any time point | demetallation in metal competition ([1]; excess concentration of metal salts, 7-day experiment): No demetallation; radioactivity in kidney and bone compared to ^89Zr-DFO (PET) ([5]; dynamic PET 0-60 minutes): much lower; transchelation in EDTA challenge ([6]; 100-, 500-, and 1000-fold excess of EDTA at pH 5 or pH 7 over 7 days): did not experience transchelation; reduction in radioactivity accumulation in the liver, kidney, and bone ([7]; 72 hours, pilot data): ≥ 10%; radioactivity retained in blood, liver, kidney and bone compared to ^89Zr-DOTP ([7]; intravenous injection): retained significantly less radioactivity in their blood, liver, kidney and bone tissue; radioactivity retained in liver, kidney and bone compared to ^89Zr-DFO ([7]; normal mice, n=6/group): lower radioactivity retention in liver, kidney, and bone tissues; also recorded: retained less radioactivity in the liver, kidney and bone
4 | – | – | no noticeable degradation | – | – | – | – | – | – | – | – | – | most hydrophilic characteristics | O=P([O-])(O)CN1CCN(CP(=O)([O-])O)CCN(CP(=O)([O-])O)CCN(CP(=O)([O-])O)CC1.[89Zr+4] [^89Zr-DOTP] | – | ^89Zr-DOTA>>^89Zr-DOTP>^89Zr-DOTAM>^89Zr-DFO | – | bone retention compared to ^89Zr-DFO ([7]; n=6/group): Bone retention is higher; radioactivity retained in liver and kidney compared to ^89Zr-DFO ([7]; n=6/group): retained less radioactivity in the liver and kidney
5 | – | – | – | – | – | – | – | – | – | – | – | – | – | [Cl][89Zr]([Cl])([Cl])[Cl] [^89ZrCl4, reference compound] | – | – | – | association with serum proteins (size exclusion chromatography) ([2]; unchelated ^89Zr control): found to be associated with serum proteins
